Measured values reported in patent US12016943B2, “Antiperspirant or deodorant composition” (Firmenich SA, priority 2016, dated 2024).

Columns and labels:
[1] = Assessment of coloration of deodorant or antiperspirant formulations containing perfuming ingredients with or without Haloscent D; type: physicochemical; design: key: CO: color; COYE: yelow color; VSCOYE: very slight yellow color; SCOYE: slight yellow color; VCOYE: very yellow color; NC: no color; DECO: decoloration; CL: cloud; VCL: very cloud; WH: white; VCOBR: very brown color; COPI: ping color; conditions: perfuming ingredient 0.5 wt %, after 15 days
Experimental: (§1) Preparation of an Antiperspirant Spray Formulation: Using a high speed stirrer, Silica (Table 1) and Quaternium-18-Hectorite (Table 1) were added to the Isopropyl miristate (Table 1) and Cyclomethicone mixture (Table 1). Once completely swollen, Aluminium Chlorohydrate (Table 1) was added portion wise under stirring until the mixture was homogeneous and without lumps. The aerosol cans were filled with 25% Suspension of the suspension and 75% of Propane/Butane (2.5 bar).
(§2) Preparation of Deodorant Spray Formulation: All the ingredients according to the sequence of the Table 2 were mixed and dissolved. Then the aerosol cans were filled, crimp and add the propellant (Aerosol filling: 40% active solution 60% Propane/Butane 2.5 bar).
(§3) Part A was prepared by sprinkling little by little the Hydroxyethylcellulose (Table 3) in the water (Table 3) whilst rapidly stirring with the turbine. Stirring was continued until the Hydroxyethylcellulose had entirely swollen and giving a limpid gel. Then, Part B (Table 3) was poured little by little in Part A whilst continuing stirring until the whole was homogeneous. Part C was added (Table 3).
(§4) Preparation of a Deodorant Stick Formulation: All the components of Part A were weighted (Table 4) and heated up to 70-75° C. Ceteareth-25 (Table 4) was added once the other Part A ingredients were mixed and heated. Once the Ceteareth-25 was dissolved, the Stearic Acid was added. Part B was prepared by dissolving the Triclosan (Table 4) in 1,2 Propylene Glycol (Table 4). Water which has evaporated was added. Slowly under mixing, Part B was poured into part A. To stock, a plastic bag into the bucket was put in to be sealed after cooling. Moulds was filled at about 70° C.
(§5) Preparation of an Antiperspirant Stick Formulation: All the components of Part A were weighted (Table 5), heated up to 70-75° C. and mixed well. Ingredient of Part B was dispersed in Part A. The mixture was mixed and putted into a tick at 65° C.
(§6) Assessment of Coloration in the Perfuming Ingredients: To set of deodorant or antiperspirant formulations of point a) to e) has been prepared. A perfuming ingredient (0.5 wt %—Table 6, 7 and 8) was added to the first set a and a perfuming ingredient (0.5 wt %—Table 6, 7 and 8) and Haloscent® D (0.5 wt %) were added to the second set. All these formulations were placed at 3° C. and 45° C. for several weeks. All formulations were evaluated in comparison with unperfumed deodorant or antiperspirant formulation. The coloration of each formulation was assessed by a minimum of 2 panelists.

[2] = as above; type: physicochemical; design: key: CO: color; COYE: yellow color; SCOYE: slight yellow color; VCOYE: very yellow color; NC: no color; DECO: discoloration; CL: cloud; VCL: very cloud; WH: white; VCOBR: very brown color; COPI: ping color; conditions: perfuming ingredient 0.5 wt %, after 15 days; for Coloration of deodorant stick: DEO STICK + Haloscent D 0.5 wt %; for Coloration of deodorant spray: DEO SPRAY + Haloscent D 0.5 wt %
Experimental: as §1, §2, §3, §4, §5, §6

[3] = as above; type: physicochemical; design: key to Coloration of antiperspirant stick: CO: color; COYE: yelow color; VSCOYE: very slight yellow color; SCOYE: slight yellow color; VCOYE: very yellow color; NC: no color; DECO: decoloration; CL: cloud; VCL: very cloud; WH: white; VCOBR: very brown color; COPI: ping color; conditions: perfuming ingredient 0.5 wt %; for Coloration of antiperspirant stick: after 7 days
Experimental: as §1, §2, §3, §4, §5, §6

[4] = Sensory evaluation of spray deodorant on cotton t-shirts: perceived fragrance intensity; conditions: deodorant spray on t-shirt, immediately after application
Text: Test formulations comprising either fragrance formulation 1 containing the β-thio carbonyl derivative profragrance of formula (I), commercially available as HALOSCENT®-D, at the amounts indicated, or fragrance formulation 1 containing the 0-thio carbonyl derivative profragrance of formula (I), commercially available as HALOSCENT®-I were formulated as deodorant sprays.
One gram of each of the test formulation was applied to separate 2-3 year old cotton t-shirts. In parallel, control formulations, comprising fragrance formulation alone (i.e., lacking the β-thio carbonyl derivative profragrance of formula (I)) were similarly applied to separate t-shirts.
A minimum of 18 skilled panelists were asked to evaluate the intensity of the fragrance of the […], in a blind, balanced, randomized study, with a 20 second break between samples.
The panelists were asked to rank the intensity of the fragrance from 0 (not perceptible), to 10 (very strong odour). The results of the evaluation were analyzed using Analysis of Variance with Duncan's post-hoc analysis (α=0.05). The analyzed results are shown in FIG. 1, where the average for each sample at the times indicated are shown. The error bars indicate the 95% confidence level. ***=a significant difference at 99.9%; **=a significant difference at 99%; *=significant difference at 95%; NS=no significant difference.

[5] = DEO ROLL-ON + Haloscent D 0.5 wt %, 3° C.
[6] = DEO ROLL-ON + Haloscent D 0.5 wt %, 45° C.
[7] = AP Stick + Haloscent D 0.5 wt %, 3° C.
[8] = AP Stick + Haloscent D 0.5 wt %, 45° C.
[9] = AP SPRAY + Haloscent D 0.5 wt %, 3° C.
[10] = AP SPRAY + Haloscent D 0.5 wt %, 45° C.
[11] = DEO STICK + Haloscent D 0.5 wt %, 3° C.

Compound | Coloration of deodorant roll-on [1, 5] | Coloration of deodorant roll-on [1, 6] | Coloration of deodorant roll-on ([1]; DEO ROLL-ON, 3° C.) | Coloration of deodorant roll-on ([1]; DEO ROLL-ON, 45° C.) | Coloration of deodorant stick ([1]; DEO STICK, 3° C.) | Coloration of deodorant stick ([1]; DEO STICK, 45° C.) | Coloration of antiperspirant stick [3, 7] | Coloration of antiperspirant stick [3, 8] | Coloration of antiperspirant stick ([3]; AP Stick, 3° C.) | Coloration of antiperspirant stick ([3]; AP Stick, 45° C.) | Coloration of antiperspirant spray [1, 9] | Coloration of antiperspirant spray [1, 10] | Coloration of deodorant stick [1, 11] | Coloration of deodorant spray ([2]; 45° C.) | other results
CC(C)=CCC/C(C)=C/CO [(E)-3,7-DIMETHYL-2,6-OCTADIEN-1-OL] | NC | NC | NC | NC | NC | NC | VSCO | NC | DECO | NC | – | – | – | – | Coloration of deodorant stick ([2]; 3° C.): COYE; Coloration of deodorant stick ([2]; 45° C.): COYE
1-OXA-12-CYCLOHEXADECEN-2-ONE (A) + 1-OXA-13-CYCLOHEXADECEN-2-ONE [HABANOLIDE] | WH | VCL | VCL | VCL | NC | NC | DECO | SCOYE | DECO | VSCOYE | SCOYE | SCOYE | NC | DECO | Coloration of antiperspirant spray ([1]; AP SPRAY, 3° C.): NC; Coloration of antiperspirant spray ([1]; AP SPRAY, 45° C.): NC; Coloration of deodorant spray ([1]; DEO SPRAY, 3° C.): NC; Coloration of deodorant spray ([1]; DEO SPRAY, 45° C.): NC; Coloration of deodorant stick ([1]; DEO STICK + Haloscent D 0.5 wt %, 45° C.): NC; Coloration of deodorant spray ([2]; 3° C.): DECO
CCCCCCCCCCCCSC(CC(C)=O)C1C(C)=CCCC1(C)C (centres unmarked) [HALOSCENT®-I, 4-(dodecylthio)-4-(2,6,6-trimethylcyclohex-2-en-1-yl)butan-2-one] | – | – | – | – | – | – | – | – | – | – | – | – | – | – | Perceived intensity of fragrance versus control formulation (FIG. 1) ([4]; fragrance formulation 1 containing 3% HALOSCENT-I): significant increases
CCCCCCCCCCCCSC(C)CC(=O)C1C(C)C=CCC1(C)C (centres unmarked) [Haloscent ® D, 3-(dodecylthio)-1-(2,6,6-trimethylcyclohex-3-en-1-yl)butan-1-one] | NC | NC | – | – | – | – | DECO PI | DECO PI | – | – | NC | SCOYE | NC | COYE | Perceived intensity of fragrance versus control formulation (FIG. 1) ([4]; fragrance formulation 1 containing 1.2% HALOSCENT-D): significant increases; Coloration of deodorant spray ([1]; DEO SPRAY + Haloscent D 0.5 wt %, 3° C.): SCOYE; Coloration of deodorant stick ([3]; DEO STICK + Haloscent D 0.5 wt %, 45° C., after 15 days): COYE CL
